Assay [1] concerns the target T1, OXA-48 (Klebsiella pneumoniae, UniProt Q6XEC0).
T1 construct: made in house; host or cells: E. coli BL21(DE3), T7 expression system
The assay can be described thus: Dilution after preincubation of OXA-48 with inhibitors. It is filed as biochemical. The procedure: To confirm the reversibility of OXA-48 inhibition by compounds ID1 and ID2, dilution-after-preincubation tests were also performed. Specifically, the experiments were conducted by preincubating (0 and 60 min) five-fold concentrated test compounds and OXA-48 enzyme, next diluting (1:5) the assay well to the standard reaction conditions and adding the nitrocefin substrate. In parallel, a control experiment with compounds ID1 and ID2 tested under the standard protocol was also run. Based on the assay design, reversible inhibitors are expected to regain enzyme activity after dilution of the enzyme-inhibitor (EI) complex and show no significant difference between AC50 values from samples preincubated under high-concentration and standard conditions. Conversely, irreversible inhibitors are envisaged not to recover any enzyme activity following dilution of the tight EI complex, which will translate in a […] in OXA-48 AC50 of high-concentration preincubated samples.
In order to validate the results obtained in the time-dependent inhibition assay, dose–response curves of reference inhibitor tazobactam, test compounds and enzyme mix were prepared as above described and 5-fold concentrated. Compounds (20 μL of 10X compounds) and enzyme (10 μL 20X enzyme in order to have a 0.0014 ng/µL OXA-48 final concentration) were preincubated for a time period of 60 min with the selected compounds and 90 min with tazobactam. The preincubation time was identified in the time-dependent inhibition experiment as suitable to detect a shift of the IC50 value. At the end of preincubation, the mix was diluted 1:5 times to restore the standard assay conditions as described for time-dependent inhibition. The reactions were started by transferring of 15 μL of enzyme-compounds or control diluted from preincubation plate into assay plate and adding 5 μL 4X nitrocefin substrate (25 µM final concentration) after 60 or 90 min. In parallel, a control experiment was assembled under the same conditions, but omitting the preincubation time between compounds and OXA-48.
a. If the AC50 value observed in the standard assay conditions was substantially unaffected by the preincubation with the 5X samples, the corresponding compound was classified as putative reversible inhibitor.

Assay [2] has as its system K. pneumoniae ATCC BAA-2524. The assay can be described thus: MIC by broth microdilution, β-lactam-resistant strain producing OXA-48. Format: cell-based, Klebsiella pneumoniae. To be noted: Klebsiella pneumoniae, ATCCBAA2524, no β-lactam, BLI tested at 32 µg/mL, read-out: MIC, BLI alone. An excerpt: To evaluate the capability of restoring β-lactam susceptibility, the two most promising representatives of SC_2 (ID3) and SC_7 (ID2) were screened alone and in combination with ampicillin (AMP) and IMP against sensitive and resistant Gram-negative bacteria. Avibactam and tazobactam were also included in the MIC characterization as BLI reference compounds. Specifically, we used E. coli ATCC25922 as antibiotic-sensitive strain, while E. coli ATCC BAA-2523 and K. pneumoniae ATCC BAA-2524 as β-lactam-resistant bacteria, producing OXA-48 carbapenemase.
Test compounds and tazobactam were tested at 32 µg/mL, while avibactam was applied at 4 µg/mL. […] Both antibiotics were selected for the combination study as they can be hydrolyzed by the target OXA-48 enzyme.
MIC values were determined by the broth dilution method and interpreted using published guidelines described by Clinical and Laboratory Standards Institute (CLSI).
All BLIs were dissolved in 100% DMSO and they were tested at a fixed concentration of 32 µg/mL and 1% of DMSO final concentration. Avibactam was used as reference β-lactamase inhibitor. All antimicrobials were prepared in line with CLSI susceptibility testing standards. AMP (USP # 1033000; batch no. K1M493) was dissolved at 5.12 mg/mL, IMP (USP # 1337809; batch no. R038R0) and avibactam (Biochem # NXL 104; batch no. 20180726) were dissolved at 1.28 mg/mL in the respective solvents recommended by CLSI (2). Solutions at 4X the final concentrations of the test range were made in Cation adjusted Mueller-Hinton broth (CA-MHB, BD # 212322; batch no. 6117994; Expiry date: 29.02.2020) by serial dilutions, and then diluted 2-fold with CA-MHB (for antimicrobials alone), or with the BLIs/avibactam (for combinations of new/reference inhibitors and antimicrobials). Moreover, all BLIs were tested alone at a fixed concentration of 32 μg/mL. The final concentration of DMSO in the test tubes was 1% for each different combination.
50 μL of each well were then transferred from the masterblock into 96-well plates to whom were then added 50 μL of the final inoculum. MIC tests were performed by broth microdilution in line with CLSI susceptibility testing standards. Bacterial inocula were prepared at ca. 1 × 10^6 CFU/mL by diluting 100-fold a 0.5 McFarland suspension in CA-MHB with TES (TREK Diagnostic Systems, Product code: T3462; Batch: 356347; Expiry date: 12-Jun-2019). 50 μL of antibacterial solutions at 2 × the final concentrations were diluted 2-fold with 50 μL of inoculum to give a final inoculum of ca. 5 × 10^5 CFU/mL and desired test concentrations of antibacterial agents. Test plates were incubated according to CLSI guidelines and read visually. MIC values corresponded to the first well with no visible growth.
A general note: Dilution methods test growth across graded concentrations, often in twofold steps.

Assay [3] has as its target T1, OXA-48. The assay can be described thus: Apparent Km and Vmax of nitrocefin with inhibitor; Ki and α determination. Format: biochemical. The conditions noted are these: for type of reversible inhibition: Lineweaver–Burk plots, with respect to nitrocefin; for α value: mixed model inhibition fit. The procedure: To further elucidate the type of reversible inhibition of compounds ID1 and ID2, double substrate (nitrocefin) and inhibitor titrations were run.
In this study, the characterization of the type of reversible inhibition was performed by the determination of the apparent Km and Vmax of nitrocefin in the presence of three concentrations of the selected inhibitors.
Stock AC30, AC50, and AC70 solutions for selected compounds were prepared at 200X in 100% DMSO. 2X compounds were prepared by diluting stock AC30, AC50 and AC70 solutions 1:100 in 1X reaction buffer.
20 μL of 2X compounds with 1% DMSO; 10 μL 4X enzyme (0.0014 ng/µL OXA-48 final concentration) were dispensed into preincubation plate and kept for 15′ at rt. […] Each compound ACn was tested in duplicate against each dose of nitrocefin. Compound activity was quantified on the fluorescence signal measured at 520 nm (kinetic measurement for 60 min of reaction). The initial velocity (V0) of the reaction was computed in the first 300′’ of measurements as robust slope. The slopes computed by Genedata Screener 13.0.5. were copied in GraphPad Prism (version 7.00, GraphPad Software Inc.) for the Michaelis-Menten analysis and the Lineweaver-Burk analysis. The average of slope replicates (n = 2) was transformed into double-reciprocal and linear regression analysis was applied.
a. When the Vmax value was independent from inhibitor concentration and the Km value of the substrate was directly proportional to the inhibitor concentration, the corresponding compound was assigned as competitive inhibitor.
V0 data obtained for the determination of apparent Km and Vmax of nitrocefin in the presence of three concentrations of the selected inhibitors, were used for the computation of Ki and a values using in GraphPad Prism (version 8.00, GraphPad Software Inc.) the mixed model inhibition/nonlinear regression curve fit method.

Setting [4] is: preincubation time 0 min, concentrated compound and enzyme, diluted 1:5 before nitrocefin, read-out: OXA-48 AC50, High Dose Preincubation.
The mark [5] stands for this setting: preincubation time 0 min, read-out: OXA-48 AC50, Standard Preincubation.
The mark [6] stands for this setting: preincubation time 60 min, concentrated compound and enzyme, diluted 1:5 before nitrocefin, read-out: OXA-48 AC50, High Dose Preincubation.
[7] abbreviates: preincubation time 60 min, read-out: OXA-48 AC50, Standard Preincubation.

This is an account of results in paper PMC8308845, “Discovery of Novel Chemical Series of OXA-48 β-Lactamase Inhibitors by High-Throughput Screening” (Pharmaceuticals, 2021).

SMILES strings stand for the structures. Read-outs that look alike come from different tables or passages of the source. Where only a bound is given, the exact number is not on record here.

T1 sequence (Q6XEC0 23-265, looked up): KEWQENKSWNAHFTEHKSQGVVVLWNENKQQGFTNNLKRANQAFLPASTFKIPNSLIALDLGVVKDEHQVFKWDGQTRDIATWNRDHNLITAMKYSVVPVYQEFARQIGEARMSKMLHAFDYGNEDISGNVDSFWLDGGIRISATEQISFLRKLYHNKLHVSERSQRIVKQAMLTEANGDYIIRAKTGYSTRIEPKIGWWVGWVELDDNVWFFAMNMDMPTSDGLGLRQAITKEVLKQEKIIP

In general, AC50 refers to the concentration at which the activity in the assay is half-maximal. What is called MIC is the lowest concentration found to suppress growth. Turning to `C[C@]1(Cn2ccnn2)[C@H](C(=O)O)N2C(=O)C[C@H]2S1(=O)=O` [tazobactam, reference compound], the “AC50 with concentrated preincubation relative to AC50 under standard assay protocol” value at OXA-48 [1] (90 min preincubation) is given as “almost three-fold lower”. Moreover, the AC50 on OXA-48 [1] (setting [4]) is 790 nM; on OXA-48 [1] (setting [5]), 820 nM; at OXA-48 [1] (preincubation time 90 min, concentrated compound and enzyme, diluted 1:5 before nitrocefin, read-out: OXA-48 AC50, High Dose Preincubation) it was 97 nM; on OXA-48 [1] (preincubation time 90 min, read-out: OXA-48 AC50, Standard Preincubation) it was 260 nM. Further, in assay [2], the MIC is above 32 µg/mL.
As for `CCc1ccc(-c2n[nH]c3nc(-c4ccc(C(=O)O)cc4)cc(C(=O)O)c23)cc1` [ID2], the AC50 is 1010 nM on OXA-48 [1] (setting [4]), 2310 nM at OXA-48 [1] (setting [5]), 1450 nM at OXA-48 [1] (setting [6]) and 2440 nM at OXA-48 [1] (setting [7]). The MIC in assay [2] is above 32 µg/mL. Besides, the “type of reversible inhibition” value at OXA-48 [3] was “competitive”. Moreover, the α value on OXA-48 [3] is 5.44.
In the case of `O=C(O)c1ccc(C=Nn2c(S)nnc2-c2ccccc2)cc1` [ID1], the AC50 is 630 nM at OXA-48 [1] (setting [4]), 1730 nM on OXA-48 [1] (setting [5]), 1090 nM on OXA-48 [1] (setting [6]) and 1930 nM at OXA-48 [1] (setting [7]). Also, the “type of reversible inhibition” value on OXA-48 [3] was “competitive”. Also, at OXA-48 [3], the α value is given as 5.50.
